In patent US7196110B2, “N-substituted tricyclic 3-aminopyrazoles as inhibitors for the treatment of cell proliferative disorders” (Janssen Phamaceutica N.V., priority 2002, dated 2007) one finds inhibition and IC50 data, which are given here for 14 compounds.

The test concerns the target T1, PDGF-receptor beta enzyme comprising the tyrosine kinase domain (Homo sapiens, UniProt P09619).
T1 construct: from amino acid 545 to 1106 of GenBank Access NO: AAA36427
Kind of test: Inhibition of PDGF-receptor kinase activity (cell-free, PLC1 peptide, 33P Flashplate). As to conditions: PDGF-R kinase activity; for inhibition at 10 µM: compound at 10 uM, read-out: Percent Inhibition @ 10 uM; for IC50: read-out: IC50. The format is biochemical. Summed up:
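Recombinant kinase domain (aa 545–1106) phosphorylated a biotinylated PLC1 peptide with 5 μM ATP plus 33P-γ-ATP, in Tris pH 8, MgCl2, Na3VO4 and 1 mM DTT, for 60 min at 30 °C. Retained 33P was counted after washing. IC50 is the concentration halving activity versus no-inhibitor reactions.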

T1 sequence (P09619 545-1106): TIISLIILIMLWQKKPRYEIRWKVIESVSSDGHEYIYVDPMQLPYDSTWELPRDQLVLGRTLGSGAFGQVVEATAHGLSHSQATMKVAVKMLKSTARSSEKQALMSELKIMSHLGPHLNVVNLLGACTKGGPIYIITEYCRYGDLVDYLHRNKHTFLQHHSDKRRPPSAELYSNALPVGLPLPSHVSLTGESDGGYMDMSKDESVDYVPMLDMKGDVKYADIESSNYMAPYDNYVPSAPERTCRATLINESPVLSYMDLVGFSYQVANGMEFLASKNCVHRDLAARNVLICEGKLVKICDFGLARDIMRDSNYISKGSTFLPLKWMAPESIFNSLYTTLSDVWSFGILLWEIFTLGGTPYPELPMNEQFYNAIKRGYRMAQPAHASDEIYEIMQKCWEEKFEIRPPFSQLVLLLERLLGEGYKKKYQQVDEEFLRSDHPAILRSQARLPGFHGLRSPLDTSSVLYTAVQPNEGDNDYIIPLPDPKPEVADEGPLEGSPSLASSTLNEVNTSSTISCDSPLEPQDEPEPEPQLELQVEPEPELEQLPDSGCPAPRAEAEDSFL

The term inhibition denotes the change of the read-out against control, counted positive when it falls. The IC50 is the concentration that gives 50% inhibition. Take `COCCCOc1ccc2c(c1)Cc1c-2n[nH]c1Nc1ccc(OC)cc1` [Compound 143, (4-Methoxy-phenyl)-[6-(3-methoxy-propoxy)-2,4-dihydro-indeno[1,2-c]pyrazol-3-yl]-amine]: the inhibition at 10 µM is 67% and the IC50 was 8.12 µM.
For the compound `COc1cccc2c1Cc1c-2n[nH]c1Nc1ccc(F)cc1` [Compound 144, (4-Fluoro-phenyl)-(5-methoxy-2,4-dihydro-indeno[1,2-c]pyrazol-3-yl)-amine], the inhibition at 10 µM stood at 96.5% and the IC50 came to 0.836 µM.
The like results for `COc1ccc(Nc2[nH]nc3c2Cc2c(OC)cccc2-3)cc1` [Compound 145, (5-Methoxy-2,4-dihydro-indeno[1,2-c]pyrazol-3-yl)-(4-methoxy-phenyl)-amine] were, in that order, 48.5% and 13.9 µM.
For `COc1cccc2c1Cc1c-2n[nH]c1Nc1cccnc1` [Compound 146, (5-Methoxy-2,4-dihydro-indeno[1,2-c]pyrazol-3-yl)-pyridin-3-yl-amine], the inhibition at 10 µM was 78.5% and the IC50 came out at 0.16 µM.
The like results for `COc1ccc(OC)c(Nc2[nH]nc3c2Cc2c(OC)cccc2-3)c1` [Compound 147, (2,5-Dimethoxy-phenyl)-(5-methoxy-2,4-dihydro-indeno[1,2-c]pyrazol-3-yl)-amine] were, in that order, 32% and 2.98 µM.
The like results for `COc1ccc(Nc2[nH]nc3c2Cc2c(OC)cccc2-3)c(OC)c1` [Compound 148, (2,4-Dimethoxy-phenyl)-(5-methoxy-2,4-dihydro-indeno[1,2-c]pyrazol-3-yl)-amine] were, in that order, 57% and 8.6 µM.
`COc1cccc2c1Cc1c-2n[nH]c1Nc1cccc(OC(F)(F)F)c1` [Compound 149, (5-Methoxy-2,4-dihydro-indeno[1,2-c]pyrazol-3-yl)-(3-trifluoromethoxy-phenyl)-amine]: the inhibition at 10 µM came out at 27.5% and the IC50 is 8.37 µM.
The like results for `COc1cccc2c1Cc1c-2n[nH]c1Nc1cccc(C(F)(F)F)c1` [Compound 150, (5-Methoxy-2,4-dihydro-indeno[1,2-c]pyrazol-3-yl)-(3-trifluoromethyl-phenyl)-amine] were, in that order, 85% and 0.823 µM.
As to `Fc1cccc(Nc2[nH]nc3c2Cc2cc(Br)ccc2-3)c1` [Compound 151, (6-Bromo-2,4-dihydro-indeno[1,2-c]pyrazol-3-yl)-(3-fluoro-phenyl)-amine], the inhibition at 10 µM was determined as 79% and the IC50 is 0.0918 µM.
The like results for `Brc1ccc2c(c1)Cc1c-2n[nH]c1Nc1cccnc1` [Compound 152, (6-Bromo-2,4-dihydro-indeno[1,2-c]pyrazol-3-yl)-pyridin-3-yl-amine] were, in that order, 80% and 0.174 µM.
The like results for `Fc1ccc(F)c(Nc2[nH]nc3c2Cc2cc(Br)ccc2-3)c1` [Compound 153, (6-Bromo-2,4-dihydro-indeno[1,2-c]pyrazol-3-yl)-(2,5-difluoro-phenyl)-amine] were, in that order, 79% and 1.03 µM.
The like results for `FC(F)(F)Oc1cccc(Nc2[nH]nc3c2Cc2cc(Br)ccc2-3)c1` [Compound 154, (6-Bromo-2,4-dihydro-indeno[1,2-c]pyrazol-3-yl)-(3-trifluoromethoxy-phenyl)-amine] were, in that order, 29% and 41.6 µM.
Turning to `FC(F)(F)c1cccc(Nc2[nH]nc3c2Cc2cc(Br)ccc2-3)c1` [Compound 155, (6-Bromo-2,4-dihydro-indeno[1,2-c]pyrazol-3-yl)-(3-trifluoromethyl-phenyl)-amine], the inhibition at 10 µM is 53% and the IC50 came to 8.11 µM.
The like results for `Brc1ccc2c(c1)Cc1c-2n[nH]c1Nc1ccccc1` [Compound 158, (6-Bromo-2,4-dihydro-indeno[1,2-c]pyrazol-3-yl)-phenyl-amine] were, in that order, 87.5% and 0.186 µM.
